Assay results from patent US5061794A, “Cephalosporin derivatives, and antibacterial agents” (priority 1986, dated 1991).
Read-outs that look alike come from different tables or passages of the source.

Experiments:
[1] = test system: E. coli CSH2 (RK1); assay: microbe, parasite or virus in culture; assay type: cell-based; conditions: 10^6 CFU/ml; for MIC: Escherichia coli, 16 h, read-out: Minimum Inhibitory Concentration (MIC), *E. coli CSH2 (RK1), lactamase-producing strain
How it was run: (§1)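 Overnight Mueller Hinton broth cultures were inoculated onto Mueller Hinton agar containing serial antibiotic concentrations at 10^6 CFU/ml. Plates were incubated at 37° C. for 16 hours, and MIC (μg/ml) was recorded.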

[2] = test system: E. coli CSH(RE45); assay: microbe, parasite or virus in culture; assay type: cell-based; conditions: 10^6 CFU/ml; for MIC: Escherichia coli, 16 h, read-out: Minimum Inhibitory Concentration (MIC), *E. coli CSH(RE45), lactamase-producing strain
How it was run: as §1

[3] = test system: M. morganii GN5407; assay: in vitro antibacterial activity, agar plate dilution method (MIC); assay type: cell-based; conditions: 10^6 CFU/ml; for MIC: Morganella morganii, GN5407, 16 h, read-out: Minimum Inhibitory Concentration (MIC), *M. morganii GN5407, lactamase-producing strain
How it was run: as §1

[4] = test system: S. marcescens No. 16-2; assay: as above; assay type: cell-based; conditions: for MIC: Serratia marcescens, NO.162, 16 h
How it was run: as §1

[5] = test system: E. cloacae Nek 39; assay: as above; assay type: cell-based; conditions: 10^6 CFU/ml; for MIC: Enterobacter cloacae, NEK39, 16 h
How it was run: as §1

[6] = test system: K. pneumoniae PCI-602; assay: as above; assay type: cell-based; conditions: 10^6 CFU/ml; for MIC: Klebsiella pneumoniae, PCI602, 16 h, read-out: Minimum Inhibitory Concentration (MIC), K. pneumoniae PCI-602
How it was run: as §1

[7] = test system: S. marcescens IAM 1184; assay: as above; assay type: cell-based; conditions: for MIC: Serratia marcescens, IAM1184, 16 h, read-out: Minimum Inhibitory Concentration (MIC)
How it was run: as §1

[8] = test system: P. vulgaris HX-19; assay: as above; assay type: cell-based; conditions: Proteus vulgaris, HX19, 16 h, P. vulgaris HX-19; 10^6 CFU/ml; read-out: Minimum Inhibitory Concentration (MIC)
How it was run: as §1

[9] = test system: K. pneumoniae No. 42; assay: as above; assay type: cell-based; conditions: 10^6 CFU/ml; for MIC: Klebsiella pneumoniae, NO.42, 16 h, read-out: Minimum Inhibitory Concentration (MIC), *K. pneumoniae No. 42, lactamase-producing strain
How it was run: as §1

[10] = test system: P. vulgaris No. 33; assay: as above; assay type: cell-based; conditions: 10^6 CFU/ml; for MIC: Proteus vulgaris, NO.33, 16 h, read-out: Minimum Inhibitory Concentration (MIC), *P. vulgaris No. 33, lactamase-producing strain
How it was run: as §1

[11] = test system: K. oxytoca GN10650; assay: as above; assay type: cell-based; conditions: 10^6 CFU/ml; for MIC: Klebsiella oxytoca
How it was run: as §1

[12] = test system: E. coli NIHJ JC2; assay: as above; assay type: cell-based; conditions: for MIC: Escherichia coli, NIHJJC2, 16 h, read-out: Minimum Inhibitory Concentration (MIC), E. coli NIHJ JC2, 10^6 CFU/ml, 37° C.
How it was run: as §1

[13] = test system: S. aureus 209P NIHJ-JC1; assay: as above; assay type: cell-based; conditions: for MIC: Staphylococcus aureus, 16 h
How it was run: as §1

[14] = test system: E. coli GN5482; assay: as above; assay type: cell-based; conditions: for MIC: Escherichia coli, GN5482, 16 h, read-out: Minimum Inhibitory Concentration (MIC)
How it was run: as §1

[15] = test system: E. cloacae 963; assay: as above; assay type: cell-based; conditions: 10^6 CFU/ml
How it was run: as §1

[16] = test system: Ps. aeruginosa IF03445; assay: as above; assay type: cell-based, Pseudomonas aeruginosa; conditions: 10^6 CFU/ml; for MIC: Pseudomonas aeruginosa
How it was run: as §1

[17] = test system: Ps. aeruginosa AKR17; assay: as above; assay type: cell-based, Pseudomonas aeruginosa; conditions: Pseudomonas aeruginosa, 10^6 CFU/ml
How it was run: as §1

[18] = test system: Ps. aeruginosa AK 109; assay: as above; assay type: cell-based, Pseudomonas aeruginosa; conditions: Ps. aeruginosa AK 109, 10^6 CFU/ml; for MIC: Pseudomonas aeruginosa, AK109, 16 h, read-out: Minimum Inhibitory Concentration (MIC)
How it was run: as §1

[19] = test system: A. calcoaceticus No. 4; assay: as above; assay type: cell-based, Acinetobacter calcoaceticus; conditions: 10^6 CFU/ml; for MIC: Acinetobacter calcoaceticus, NO.4, 16 h
How it was run: as §1

[20] = test system: Ps. cepacia 23; assay: as above; assay type: cell-based, Pseudomonas cepacia; conditions: for MIC: read-out: Minimum Inhibitory Concentration (MIC)
How it was run: as §1

[21] = read-out: Minimum Inhibitory Concentration (MIC)
[22] = read-out: Minimum Inhibitory Concentration (MIC), *E. cloacae Nek 39, lactamase-producing strain
[23] = GN10650, 16 h, read-out: Minimum Inhibitory Concentration (MIC), *K. oxytoca GN10650, lactamase-producing strain
[24] = Enterobacter cloacae, 963, 16 h, read-out: Minimum Inhibitory Concentration (MIC), E. cloacae 963
[25] = 16 h, Ps. aeruginosa IF03445, read-out: Minimum Inhibitory Concentration (MIC)
[26] = 16 h, Ps. aeruginosa AKR17, read-out: Minimum Inhibitory Concentration (MIC)
[27] = A. calcoaceticus No. 4, read-out: Minimum Inhibitory Concentration (MIC)
[28] = read-out: Minimum Inhibitory Concentration (MIC), *S. marcescens No. 16-2, lactamase-producing strain, 10^6 CFU/ml
[29] = read-out: Minimum Inhibitory Concentration (MIC), S. aureus 209P NIHJ-JC1, 10^6 CFU/ml, 37° C., 16 hours
[30] = read-out: Minimum Inhibitory Concentration (MIC), A. calcoaceticus No. 4

Nc1nc(C(=NOC(C(=O)O)c2ccc(O)c(O)c2)C(=O)NC2C(=O)N3C(C(=O)O)=C(CSc4nnc(-c5ccc(O)c(O)c5)s4)CSC23)cs1 (single isomer, unassigned) [Example 38 DB, disodium 7β-{2-(2-aminothiazol-4-yl)-2-(α-carboxylate-3,4-dihydroxybenzyloxyimino)acetamido]-3-[5-(3,4-dihydroxyphenyl)-1,3,4-thiadiazol-2-yl]thiomethyl-3-cephem-4-carboxylate]
Minimum Inhibitory Concentration (MIC) ([1]; *E. coli CSH2 (RK1), lactamase-producing strain): 0.025 µg/mL
Minimum Inhibitory Concentration (MIC) ([2]; *E. coli CSH(RE45), lactamase-producing strain): 0.0125 µg/mL
Minimum Inhibitory Concentration (MIC) ([3]; *M. morganii GN5407, lactamase-producing strain): 0.2 µg/mL
Minimum Inhibitory Concentration (MIC) ([4]; *S. marcescens No. 16-2, lactamase-producing strain, 10^6 CFU/ml): 6.25 µg/mL
Minimum Inhibitory Concentration (MIC) ([5]; *E. cloacae Nek 39, lactamase-producing strain): 0.39 µg/mL
Minimum Inhibitory Concentration (MIC) ([6]; K. pneumoniae PCI-602): < 0.006 µg/mL
Minimum Inhibitory Concentration (MIC) ([7]; S. marcescens IAM 1184, 10^6 CFU/ml): 0.1 µg/mL
MIC [8]: 0.025 µg/mL
Minimum Inhibitory Concentration (MIC) ([9]; *K. pneumoniae No. 42, lactamase-producing strain): 0.1 µg/mL
Minimum Inhibitory Concentration (MIC) ([10]; *P. vulgaris No. 33, lactamase-producing strain): 0.1 µg/mL
Minimum Inhibitory Concentration (MIC) ([11]; *K. oxytoca GN10650, lactamase-producing strain): 0.1 µg/mL
Minimum Inhibitory Concentration (MIC) ([12]; E. coli NIHJ JC2, 10^6 CFU/ml, 37° C., 16 hours): 0.78 µg/mL
Minimum Inhibitory Concentration (MIC) ([13]; S. aureus 209P NIHJ-JC1, 10^6 CFU/ml, 37° C., 16 hours): 1.56 µg/mL
Minimum Inhibitory Concentration (MIC) ([14]; *E. coli GN5482, lactamase-producing strain, 10^6 CFU/ml): 0.78 µg/mL
MIC ([15]; Enterobacter cloacae, 16 h, E. cloacae 963, read-out: Minimum Inhibitory Concentration (MIC)): 0.2 µg/mL
Minimum Inhibitory Concentration (MIC) ([16]; Ps. aeruginosa IF03445): 3.12 µg/mL
MIC ([17]; AKR17, 16 h, read-out: Minimum Inhibitory Concentration (MIC), Ps. aeruginosa AKR17): 1.56 µg/mL
Minimum Inhibitory Concentration (MIC) [18]: 0.78 µg/mL
Minimum Inhibitory Concentration (MIC) ([19]; A. calcoaceticus No. 4): 0.05 µg/mL
Minimum Inhibitory Concentration (MIC) ([20]; Ps. cepacia 23, 10^6 CFU/ml): < 0.006 µg/mL

CO/N=C(\C(=O)N[C@@H]1C(=O)N2C(C(=O)O)=C(CSc3nc(-c4ccccc4)cs3)CS[C@H]12)c1csc(N)n1 [compound 9, sodium 7μ-[2-(2-aminothiazol-4-yl)-2-methoxyiminoacetamido]-3-(4-phenylthiazol-2-yl)-thiomethyl-3-cephem-4-carboxylate, reference compound]
MIC [1]: 0.39 µg/mL
MIC [2]: 0.78 µg/mL
MIC [3]: 0.78 µg/mL
MIC [4, 21]: 3.12 µg/mL
MIC [5, 22]: 3.12 µg/mL
MIC [6]: < 0.006 µg/mL
MIC [7]: 0.39 µg/mL
MIC [8]: < 0.006 µg/mL
MIC [9]: 1.56 µg/mL
MIC [10]: 0.78 µg/mL
MIC [11, 23]: 3.12 µg/mL
MIC [12]: 0.78 µg/mL
MIC ([13]; S. aureus 209P NIHJ-JC1, 10^6 CFU/ml, 37° C., 16 hours, read-out: Minimum Inhibitory Concentration (MIC)): 0.1 µg/mL
MIC [14]: 0.39 µg/mL
MIC [15, 24]: 1.56 µg/mL
MIC [16, 25]: 25 µg/mL
MIC [17, 26]: > 100 µg/mL
MIC [18]: 25 µg/mL
MIC [19, 27]: 25 µg/mL
MIC ([20]; Burkholderia cepacia, 23, 16 h): 3.12 µg/mL

CC(C)(O/N=C(\C(=O)N[C@@H]1C(=O)N2C(C(=O)O)=C(CSc3nnc(-c4ccc(O)cc4)s3)CS[C@H]12)c1csc(N)n1)C(=O)O [compound 8, disodium 7β-[2-(2-aminothiazol-4-yl)-2-(1-carboxylate-1-methylethoxyimino)acetamido]-3-[5-(4-hydroxyphenyl)-1,3,4-thiadiazol-2-yl)thiomethyl-3-cephem-4-carboxylate, reference compound]
MIC [1]: 0.78 µg/mL
MIC [2]: 0.78 µg/mL
MIC [3]: 1.56 µg/mL
MIC [4, 28]: 6.25 µg/mL
MIC ([5]; *E. cloacae Nek 39, lactamase-producing strain, read-out: Minimum Inhibitory Concentration (MIC)): 25 µg/mL
MIC [6]: 0.1 µg/mL
MIC [7]: 0.78 µg/mL
MIC [8]: < 0.006 µg/mL
MIC [9]: 3.12 µg/mL
MIC [10]: 0.2 µg/mL
MIC [11, 23]: 6.25 µg/mL
MIC [12]: 3.12 µg/mL
MIC [13, 29]: 6.25 µg/mL
MIC [14]: 3.12 µg/mL
MIC [15, 24]: 6.25 µg/mL
MIC [16, 25]: 25 µg/mL
MIC [17, 26]: > 100 µg/mL
MIC [18]: 25 µg/mL
MIC [19, 30]: 3.12 µg/mL
MIC ([20]; Burkholderia cepacia, 23, 16 h): 6.25 µg/mL

C#CCO/N=C(\C(=O)N[C@@H]1C(=O)N2C(C(=O)O)=C(CSc3nnc(-c4ccc(O)c(O)c4)o3)CS[C@H]12)c1csc(N)n1 [compound 9, sodium 7β-[2-(2-aminothiazol-4-yl)-2-(2-propynyloxyimino)acetamido]-3-[5-(3,4-dihydroxyphenyl)-1,3,4-oxadiazol-2-yl]thiomethyl-3-cephem-4carboxylate]
MIC [1]: 0.0125 µg/mL
MIC [2]: 0.0125 µg/mL
MIC [3]: 0.0125 µg/mL
MIC [4, 28]: 6.25 µg/mL
MIC [5, 22]: 0.1 µg/mL
MIC [6]: 0.0125 µg/mL
MIC [7]: 0.0125 µg/mL
MIC [8]: < 0.006 µg/mL
MIC [9]: 0.025 µg/mL
MIC [10]: 0.025 µg/mL
MIC [11, 23]: 6.25 µg/mL
MIC [12]: 0.1 µg/mL
MIC [13, 29]: 0.78 µg/mL
MIC [14]: 0.39 µg/mL
MIC [15, 24]: 0.0125 µg/mL
MIC ([16]; IF03445, 16 h, read-out: Minimum Inhibitory Concentration (MIC), Ps. aeruginosa IF03445): 1.56 µg/mL
MIC [17, 26]: > 100 µg/mL
MIC [18]: 0.2 µg/mL
MIC [19, 30]: 0.1 µg/mL
MIC ([20]; Burkholderia cepacia, 16 h, Ps. cepacia 23, 10^6 CFU/ml): 0.05 µg/mL

CO/N=C(\C(=O)N[C@@H]1C(=O)N2C(C(=O)O)=C(CSc3nc(-c4ccc(O)cc4)c(CC(=O)O)s3)CS[C@H]12)c1csc(N)n1 [compound 17, disodium 7β-[2-(2-aminothiazol-4-yl)-2-methoxyminoacetamido]-3-[5-carboxylatemethyl-4-(4-hydroxyphenyl)thiazol-2-yl]thiomethyl-3-cephem-4-carboxylate, reference compound]
MIC [1]: 0.39 µg/mL
MIC [2]: 0.78 µg/mL
MIC [3]: 0.39 µg/mL
MIC ([4]; *S. marcescens No. 16-2, lactamase-producing strain, 10^6 CFU/ml, read-out: Minimum Inhibitory Concentration (MIC)): 100 µg/mL
MIC [5, 22]: 12.5 µg/mL
MIC [6]: 0.1 µg/mL
MIC [7]: 0.39 µg/mL
MIC [8]: < 0.006 µg/mL
MIC [9]: 0.78 µg/mL
MIC [10]: 0.1 µg/mL
MIC ([11]; 16 h, *K. oxytoca GN10650, lactamase-producing strain, read-out: Minimum Inhibitory Concentration (MIC)): 25 µg/mL
MIC [12]: 0.39 µg/mL
MIC [13, 21]: 3.12 µg/mL
MIC [14]: 3.12 µg/mL
MIC [15, 24]: 0.39 µg/mL
MIC [16, 25]: 50 µg/mL
MIC [17, 26]: > 100 µg/mL
MIC [18]: 50 µg/mL
MIC [19, 27]: 100 µg/mL
MIC ([20]; Burkholderia cepacia, 23, 16 h): 6.25 µg/mL
